Columns and labels:
Plutella xylostella = assay: Insecticidal test against Plutella xylostella; details: 500 ppm drug solution; Chinese cabbage seedlings with eggs immersed about 30 sec; six days after immersion; 25° C.
Description: Six days after the immersion in the drug solution, the number of surviving insects was examined. […] In triplicate using 10 per plot.

Laodelphax striatellus = assay: Insecticidal test against Laodelphax striatellus; details: 500 ppm drug solution; rice seedlings immersed 30 seconds; three-instar insects; eight days after inoculation
Dirofilaria immitis = assay: Influence evaluation test on the growth of Dirofilaria immitis; details: 168 h, read-out: development inhibition rate from the L3 stage larva to the L4-stage larva
[1] = tested on: Frankliniella occidentalis; assay: Insecticidal test against Frankliniella occidentalis; details: 500 ppm drug solution sprayed on Phaseolus vulgaris leaf pieces with hatched larvae; four days after treatment
Description: [formula] • assessment criteria.
Female adult Frankliniella occidentalis were inoculated onto Phaseolus vulgaris leaf pieces, and after allowing them to lay eggs for one day, the female adults were removed. […] Four days after the treatment, the number of surviving larvae of this species was examined. […] In duplicate.

Row | Compound | corrected mortality, rating of assessment (Plutella xylostella) | corrected mortality, rating of assessment (Laodelphax striatellus) | inhibition at 10 µM (Dirofilaria immitis) [%] | corrected mortality, rating of assessment [1]
1 | O=C1CC(c2cncs2)CC(O)=C1C(=O)Nc1ccc(F)cc1 (stereo not shown) [1-152] | D or higher | D or higher | – | –
2 | O=C1CC(c2ccc(C(F)(F)F)cc2)CC(O)=C1C(=O)Nc1ccc(F)cn1 (stereo not shown) [1-48, N-(5-fluoropyridin-2-yl)-5-hydroxy-3-oxo-4′-(trifluoromethyl)-1,2,3,6-tetrahydro-[1,1′-biphenyl]-4-carboxamide] | D or higher | – | ≥ 50 | –
3 | O=C1CC(c2ccc(C(F)(F)F)cc2)CC(O)=C1C(=O)Nc1nccs1 (stereo not shown) [1-47, 5-hydroxy-3-oxo-N-(thiazol-2-yl)-4′-(trifluoromethyl)-1,2,3,6-tetrahydro-[1,1′-biphenyl]-4-carboxamide] | – | – | ≥ 50 | –
4 | CONC1=C(C(=O)Nc2ccc(F)cc2)C(=O)CC(c2ccc(C(F)(F)F)cc2)C1 (stereo not shown) [1-227, N-(4-fluorophenyl)-5-(methoxyamino)-3-oxo-4′-(trifluoromethyl)-1,2,3,6-tetrahydro-[1,1′-biphenyl]-4-carboxamide] | – | – | ≥ 50 | –
5 | CC1(c2ccc(C(F)(F)F)cc2)CC(=O)C(C(=O)Nc2ccc(F)cc2)=C(O)C1 (stereo not shown) [1-139] | – | – | – | D or higher
6 | CC(C)NC(=S)C1=C(O)CC(c2ccc(C(F)(F)F)cc2)CC1=O (stereo not shown) [1-84] | – | D or higher | – | –
7 | O=C1CC(c2ccc(C(F)(F)F)cc2)CC(O)=C1C(=O)Nc1ccc(OC(F)(F)F)cc1 (stereo not shown) [1-9] | D or higher | D or higher | – | D or higher
8 | C[S+]([O-])c1ccc(C2CC(=O)C(C(=O)Nc3ccc(F)cn3)=C(O)C2)cc1 (stereo not shown) [1-164] | D or higher | D or higher | – | –
9 | O=C1CC(c2ccc(C(F)(F)F)nc2)CC(O)=C1C(=O)Nc1ccc(F)nc1 (stereo not shown) [1-150] | – | D or higher | – | D or higher
10 | O=C1CC(c2ccc(C(F)(F)F)nc2)CC(O)=C1C(=O)Nc1ccc(F)cn1 (stereo not shown) [1-149] | D or higher | D or higher | – | –
11 | O=C1CC(c2ccc(C(F)(F)F)nc2)CC(O)=C1C(=O)Nc1ccc(F)cc1 (stereo not shown) [1-68] | D or higher | D or higher | – | –
12 | O=C1CC(c2ccc(C(F)(F)F)cc2)CC(SCc2ccccc2)=C1C(=O)Nc1ccc(F)cc1 (stereo not shown) [1-225] | D or higher | D or higher | – | –
13 | O=C1CC(c2ccc(C(F)(F)F)cc2)CC(O)=C1C(=O)Nc1ccc(F)cc1F (stereo not shown) [1-17] | D or higher | – | – | –
14 | O=C1CC(c2ccc(C(F)(F)F)cc2)CC(O)=C1C(=O)Nc1cccc2ncccc12 (stereo not shown) [1-156] | D or higher | – | – | –
15 | NC(=O)c1ccc(C2CC(=O)C(C(=O)Nc3ccc(F)cc3)=C(O)C2)cc1 (stereo not shown) [1-62] | D or higher | – | – | –
16 | O=C1CC(c2ccc(C(F)(F)F)cc2)CC(O)=C1C(=S)Nc1cccc(F)c1 (stereo not shown) [1-95] | D or higher | – | – | –
17 | O=C1CC(c2ccc(C(F)(F)F)cc2)CC(O)=C1C(=O)Nc1ccc(F)nc1 (stereo not shown) [1-146] | D or higher | – | – | –
18 | O=C1CC(c2ccc(C(F)(F)F)nc2)CC(O)=C1C(=O)Nc1ccc(Cl)cc1 (stereo not shown) [1-71] | D or higher | – | – | –
19 | O=C1CC(c2ccc(C(F)(F)F)cc2)CC(O)=C1C(=O)Nc1ccc(F)c(F)c1 (stereo not shown) [1-19] | D or higher | – | – | –
20 | O=C1CC(c2cccs2)CC(O)=C1C(=O)Nc1cccs1 (stereo not shown) [1-75] | D or higher | – | – | –
21 | O=C1CC(c2ccc(C(F)(F)F)nc2)CC(O)=C1C(=O)Nc1ccc(C(F)(F)F)cc1 (stereo not shown) [1-69] | D or higher | – | – | –
22 | O=C1CC(c2ccc(Br)cn2)CC(O)=C1C(=O)Nc1ccc(F)cc1 (stereo not shown) [1-161] | D or higher | D or higher | – | –
23 | O=C1CC(c2ccc(C(F)(F)F)nc2)CC(O)=C1C(=O)Nc1ccnc(F)c1 (stereo not shown) [1-151] | D or higher | – | – | –
24 | N#Cc1ccc(C2CC(=O)C(C(=O)Nc3ccc(F)cc3)=C(O)C2)cc1 (stereo not shown) [1-61] | D or higher | – | – | –
